These results are taken from patent publication US20120129884A1, “PHOTOCHEMOTHERAPEUTIC HETEROCYCLIC AGENTS HAVING ANTIPROLIFERATIVE AND ANTINEOPLASTIC ACTIVITY” (UNIVERSITA DEGLI STUDI DI PADOVA, priority 2009, published 2012).

The subject of data set [1] is colon adenocarcinoma (LoVo). The data set can be described thus: Phototoxicity after UV-A irradiation, MTT test. It is filed as cell-based, human. Conditions: mean ± SEM. As to the method: (§1) The evaluation of phototoxic activity was carried out in some human tumour cell lines: T-cell leukaemia (Jurkat), chronic myeloid leukaemia (K-562), colon adenocarcinoma (LoVo) and breast adenocarcinoma (MCF-7). Cellular survival experiments were carried out without irradiation to verify an eventual toxicity of photosensitizer in the dark, and then after two times of irradiation (10 and 15 min of UV-A, which correspond to 2.5 and 3.75 J/cm^2, respectively), using lamps which emit mainly at 365 nm. Cell survival was checked after 72 h of compound incubation or after 72 h from UVA irradiation by Mosmann's MTT reduction test (3-[4,5-dimethyltiazol-2yl] 2,5-diphenyl tetrazolium bromide), (T. Mossman, Rapid colorimetric assay for cellular growth and survival: application to proliferation and cytotoxicity assays, J. Immunol. Meths. 1983, 65, 55-63). […] In Table 2, there are GI50 values, that is the compound concentration required for 50% cell survival, for each cell line and for every time of irradiation.

For data set [2], the system named is T-cell leukaemia (Jurkat). The data set can be described thus: Phototoxicity after UV-A irradiation, MTT test. It is filed as cell-based, human. The conditions noted are these: mean ± SEM. As to the method: as §1
For orientation: Tetrazolium dyes change colour on reduction, which living cells bring about.

The subject of data set [3] is breast adenocarcinoma (MCF-7). The experiment in a line: Phototoxicity after UV-A irradiation, MTT test. It is filed as cell-based, human. The conditions noted are these: mean ± SEM. As to the method: as §1
Data set [4] has as its system chronic myeloid leukaemia (K-562). The experiment in a line: Phototoxicity after UV-A irradiation, MTT test. In kind it is cell-based, human. Conditions: mean ± SEM. As to the method:
as §1

Another data set deals with plasmid (pBR322) DNA. The experiment in a line: Plasmid strand break / DNA photodamage experiments (Fpg, Endo III). In kind it is biochemical. The conditions noted are these: pBR322, irradiated, Fpg and Endo III. As to the method: After having assessed a weak affinity toward this macromolecule in the dark by such spectroscopic techniques as linear dichroism and fluorimetric titrations, some plasmid (pBR322) strand break experiments were carried out to check an eventual DNA photodamage by compounds. The formation of open circular or linear DNA from a supercoiled plasmid DNA was monitored by the separation of the three forms using agarose gel horizontal electrophoresis. Beside the formation of frank strand breaks, oxidative damages to purine and pyrimidine bases were also evaluated, incubating the irradiated mixture with the repair enzyme Fpg (Formamidopyrimidine glycosylase) and Endo III (Endonuclase III), respectively. (B. Epe, M. Pflaum, S. Boiteux, DNA damage induced by photosensitizers in cellular and cell-free systems, Mut. Res. 1993, 299, 135-145; T. A. Ciulla, J. R. Van Camp, E. Rosenfeld, I. Kochevar, Photosensitization of single-strand breaks in pBR322 DNA by Rose Bengal, Photochem. Photobiol. 1989, 49, 293-298).

The subject of data set [5] is human tumour cell lines (Jurkat, K-562, LoVo, MCF-7). The data set can be described thus: Phototoxicity / dark toxicity in all tested human tumour cell lines, MTT test. In kind it is cell-based. Conditions: after UVA irradiation. As to the method:
as §1

The mark [6] stands for this setting: Homo sapiens, light or radiation study, 72 h, UV-A 2.5 J/cm^2, 72 h after irradiation.
[7] abbreviates: Homo sapiens, light or radiation study, 72 h, UV-A 3.75 J/cm^2, 72 h after irradiation.
[8] abbreviates: Homo sapiens, MCF7, light or radiation study, 72 h, MCF-7, UV-A 2.5 J/cm^2, 72 h after irradiation.
[9] abbreviates: Homo sapiens, MCF7, light or radiation study, 72 h, MCF-7, UV-A 3.75 J/cm^2, 72 h after irradiation.
The mark [10] stands for this setting: Homo sapiens, K562, light or radiation study, 72 h, K-562, UV-A 2.5 J/cm^2, 72 h after irradiation.
Where [11] appears, read: Homo sapiens, K562, light or radiation study, 72 h, K-562, UV-A 3.75 J/cm^2, 72 h after irradiation.
[12] abbreviates: UV-A 2.5 J/cm^2, 72 h after irradiation.
[13] abbreviates: UV-A 3.75 J/cm^2, 72 h after irradiation.
Where [14] appears, read: MCF-7, UV-A 2.5 J/cm^2, 72 h after irradiation.
[15] abbreviates: MCF-7, UV-A 3.75 J/cm^2, 72 h after irradiation.
[16] abbreviates: K-562, UV-A 2.5 J/cm^2, 72 h after irradiation.
[17] abbreviates: K-562, UV-A 3.75 J/cm^2, 72 h after irradiation.

By GI50 is commonly meant the concentration at which growth is held to half of that of the control. Lower therefore signals greater sensitivity of the cells. As to `O=c1ccc2ccc3occc3c2o1` [Ang, angelicin, reference compound], the GI50 in data set [1] (setting [6]) turned out to be 3.6 ± 0.4 µM; in data set [1] (setting [7]), 1.5 ± 0.3 µM; in data set [2] (setting [6]), 1 ± 0.2 µM; in data set [2] (setting [7]) it was 0.9 ± 0.1 µM; in data set [3] (setting [8]), 4.4 ± 0.5 µM; in data set [3] (setting [9]), 1.5 ± 0.2 µM. Also, the GI50 worked out at 1.2 ± 0.1 µM in data set [4] (setting [10]) and 1 ± 0.1 µM in data set [4] (setting [11]).
With `O=c1[nH]c2c(cc1S(=O)(=O)c1ccccc1)CCc1ccn(S(=O)(=O)c3ccccc3)c1-2` [Compound 9a, 1,7-bis(Phenylsulfonyl)-1,4,5,9-tetrahydro-8H-pyrrolo[3,2-h]quinolin-8-one], the 50% growth inhibitory concentration (GI50) in data set [1] (setting [6]), in data set [1] (setting [7]), in data set [2] (setting [6]), in data set [2] (setting [7]), in data set [3] (setting [8]) and in data set [3] (setting [9]) was over 20 µM throughout. For the same compound, the 50% growth inhibitory concentration (GI50) in data set [4] (setting [10]) and in data set [4] (setting [11]) was over 20 µM in each case.
As to `O=c1[nH]c2c(cc1S(=O)(=O)c1ccccc1)CCc1cc[nH]c1-2` [Compound 9b, 7-(Phenylsulfonyl)-1,4,5,9-tetrahydro-8H-pyrrolo[3,2-h]quinolin-8-one], the GI50 in data set [1] (setting [6]), in data set [1] (setting [7]), in data set [2] (setting [6]), in data set [2] (setting [7]), in data set [3] (setting [8]) and in data set [3] (setting [9]) was over 20 µM throughout. Further, the GI50 in data set [4] (setting [10]) and in data set [4] (setting [11]) was over 20 µM throughout.
On to `N#Cc1cc2c([nH]c1=O)-c1c(ccn1S(=O)(=O)c1ccccc1)CC2` [Compound 9c, 1-(Phenylsulfonyl)-1,4,5,9-tetrahydro-8H-pyrrolo[3,2-h]quinolin-7-carbonitrile-8-one], for which the 50% growth inhibitory concentration (GI50) in data set [1] (setting [12]), in data set [1] (setting [13]), in data set [2] (setting [12]), in data set [2] (setting [13]), in data set [3] (setting [14]) and in data set [3] (setting [15]) was over 20 µM throughout. For the same compound, the GI50 in data set [4] (setting [16]) and in data set [4] (setting [17]) was over 20 µM throughout.
Regarding `Cn1ccc2c1-c1[nH]c(=O)c(S(=O)(=O)c3ccccc3)cc1CC2` [Compound 9d, 1-Methyl-7-(phenylsulfonyl)-1,4,5,9-tetrahydro-8H-pyrrolo[3,2-h]quinolin-8-one], the 50% growth inhibitory concentration (GI50) in data set [1] (setting [6]), in data set [1] (setting [7]), in data set [2] (setting [6]), in data set [2] (setting [7]), in data set [3] (setting [8]) and in data set [3] (setting [9]) was over 20 µM each time. Also, the concentration for 50% growth inhibition (GI50) in data set [4] (setting [10]) and in data set [4] (setting [11]) was over 20 µM in each case.
`O=c1[nH]c2c(cc1S(=O)(=O)c1ccccc1)CCc1ccn(Cc3ccccc3)c1-2` [Compound 9e, 1-Benzyl-7-(phenylsulfonyl)-1,4,5,9-tetrahydro-8H-pyrrolo[3,2-h]quinolin-8-one]: the 50% growth inhibitory concentration (GI50) in data set [1] (setting [6]) came out at 2.6 ± 0.2 µM; in data set [1] (setting [7]), 2.2 ± 0.2 µM; in data set [2] (setting [6]) it was 1.3 ± 0.2 µM; in data set [2] (setting [7]), 1.1 ± 0.1 µM; in data set [3] (setting [8]) it was 4 ± 0.6 µM; in data set [3] (setting [9]) it was 1.7 ± 0.7 µM. For the same compound, the GI50 in data set [4] (setting [10]) was 4.8 ± 0.5 µM; in data set [4] (setting [11]), 3.3 ± 0.5 µM.
As to `O=c1[nH]c2c(cc1S(=O)(=O)c1ccccc1)CCc1ccn(-c3ccccc3)c1-2` [Compound 9f, 1-Phenyl-7-(phenylsulfonyl)-1,4,5,9-tetrahydro-8H-pyrrolo[3,2-h]quinolin-8-one], the 50% growth inhibitory concentration (GI50) in data set [1] (setting [6]), in data set [1] (setting [7]), in data set [2] (setting [6]), in data set [2] (setting [7]), in data set [3] (setting [8]) and in data set [3] (setting [9]) was over 20 µM in each case. Also, the concentration for 50% growth inhibition (GI50) in data set [4] (setting [10]) and in data set [4] (setting [11]) was over 20 µM each time.
In the case of `Cc1ccc(Cn2ccc3c2-c2[nH]c(=O)c(S(=O)(=O)c4ccccc4)cc2CC3)cc1` [Compound 9g, 1-(p-Methyl-benzyl)-7-(phenylsulfonyl)-1,4,5,9-tetrahydro-8H-pyrrolo[3,2-h]quinolin-8-one], the 50% growth inhibitory concentration (GI50) in data set [1] (setting [6]) is 2.7 ± 0.1 µM; in data set [1] (setting [7]) it was 2.3 ± 0.2 µM; in data set [2] (setting [6]), 1.6 ± 0.1 µM; in data set [2] (setting [7]), 1.2 ± 0.2 µM; in data set [3] (setting [8]), 3.8 ± 0.5 µM; in data set [3] (setting [9]), 2.4 ± 0.2 µM. Besides, the concentration for 50% growth inhibition (GI50) in data set [4] (setting [10]) came out at 2.7 ± 0.2 µM; in data set [4] (setting [11]) it was 2.4 ± 0.1 µM.
As to `COc1ccc(Cn2ccc3c2-c2[nH]c(=O)c(S(=O)(=O)c4ccccc4)cc2CC3)cc1` [Compound 9h, 1-(p-Methoxy-benzyl)-7-(phenylsulfonyl)-1,4,5,9-tetrahydro-8H-pyrrolo[3,24]quinolin-8-one], the GI50 in data set [1] (setting [12]) worked out at 2.8 ± 0.3 µM; in data set [1] (setting [13]), 2 ± 0.2 µM; in data set [2] (setting [12]), 1.6 ± 0.2 µM; in data set [2] (setting [13]) it was 1.2 ± 0.2 µM; in data set [3] (setting [14]), 4.2 ± 0.7 µM; in data set [3] (setting [15]), 1.8 ± 0.1 µM. Further, the 50% growth inhibitory concentration (GI50) came out at 3.1 ± 0.4 µM in data set [4] (setting [16]) and 2.5 ± 0.2 µM in data set [4] (setting [17]).
For the compound `CCOC(=O)c1cc2c([nH]1)-c1[nH]c(=O)c(S(=O)(=O)c3ccccc3)cc1CC2` [Compound 9i, Ethyl 7-(phenylsulfonyl)-1,4,5,9-tetrahydro-8H-pyrrolo[3,2-h]quinolin-8-one-2-carboxylate], the GI50 was determined as 5.5 ± 0.2 µM in data set [1] (setting [6]); 4.6 ± 0.4 µM in data set [1] (setting [7]); 3.5 ± 0.4 µM in data set [2] (setting [6]); 2.5 ± 0.2 µM in data set [2] (setting [7]); 6.1 ± 0.2 µM in data set [3] (setting [8]); 4.3 ± 0.7 µM in data set [3] (setting [9]). The concentration for 50% growth inhibition (GI50) is 6.1 ± 0.2 µM in data set [4] (setting [10]) and 5.4 ± 0.6 µM in data set [4] (setting [11]).
Consider `CCOC(=O)c1cc2c(n1C)-c1[nH]c(=O)c(S(=O)(=O)c3ccccc3)cc1CC2` [Compound 9j, Ethyl 1-methyl-7-(phenylsulfonyl)-1,4,5,9-tetrahydro-8H-pyrrolo[3,2-h]quinolin-8-one-2-carboxylate], for which, in the data set on plasmid (pBR322) DNA, the “DNA photodamage (photocleavage, oxidative damages in DNA bases)” value is on record as “do not induce DNA photodamage”. Moreover, in data set [5], the “GI50 (phototoxic)” value is given as “submicromolar”. Further, the GI50 in data set [1] (setting [6]) is 1.1 ± 0.1 µM; in data set [1] (setting [7]), 1 ± 0.1 µM; in data set [2] (setting [6]) it was 0.7 ± 0.1 µM; in data set [2] (setting [7]) it was 0.5 ± 0.1 µM; in data set [3] (setting [8]), 1.2 ± 0.1 µM; in data set [3] (setting [9]), 1 ± 0.1 µM. The GI50 in data set [4] (setting [10]) worked out at 1 ± 0.1 µM; in data set [4] (setting [11]), 0.9 ± 0.1 µM.
Regarding `CCOC(=O)c1cc2c(n1Cc1ccc(C)cc1)-c1[nH]c(=O)c(S(=O)(=O)c3ccccc3)cc1CC2` [Compound 9l, Ethyl 1-(p-methyl-benzyl)-7-(phenylsulfonyl)-1,4,5,9-tetrahydro-8H-pyrrolo[3,2-h] quinolin-8-one-2-carboxylate], the GI50 in data set [1] (setting [6]) is 1.6 ± 0.2 µM; in data set [1] (setting [7]), 1 ± 0.2 µM; in data set [2] (setting [6]), 1.5 ± 0.2 µM; in data set [2] (setting [7]) it was 1.2 ± 0.1 µM; in data set [3] (setting [8]) it was 1.7 ± 0.3 µM; in data set [3] (setting [9]) it was 1.5 ± 0.2 µM. Also, the figures for the GI50 in data set [4] (setting [10]) and in data set [4] (setting [11]) were 1.2 ± 0.3 µM and 1 ± 0.1 µM, respectively.
